According to patent publication US20100204181A1, “N-HALOGENATED AMINO ACID FORMULATIONS COMPRISING PHOSPHINE OR AMINE OXIDES” (ALCON RESEARCH, LTD., priority 2009, published 2010):

Columns and labels:
S. aureus = test: Viable cells per mL of S. aureus after treatment; type: cell-based; conditions: 5 minutes after treatment
Experimental: As shown above in Table 1, there were only 24 viable cells per mL measured 5 minutes after treatment with 0.001% N,N-dichloro-2,2-dimethyltaurine formulated with acetate buffer at pH 4. In contrast, there were 27429 and 910 viable cells per mL 5 minutes after treatment with a 0.001% N,N-dichloro-2,2-dimethyltaurine formulation comprising no buffer and adipic acid buffer, respectively.

[1] = Chemical stability of N,N-dichloro-2,2-dimethyltaurine solution with and without TBPO or TMAO; type: physicochemical
From the text: FIG. 1 is a graph showing the stability of a 0.1 w/v % solution of N,N-dichloro-2,2-dimethyltaurine with and without 0.01 w/v % TBPO; and
FIG. 2 is a graph showing the stability of a 0.11 w/v % solution of N,N-dichloro-2,2-dimethyltaurine with and without 0.037 w/v % TMAO.
The present inventors have discovered that the antimicrobial activity of N-halogenated amino acid compounds is enhanced in a formulation comprising a phosphine oxide or amine oxide compound. The enhancement is synergistic, as the phosphine oxide and amine oxide compounds tested have no intrinsic antimicrobial activity. Also the increase in antimicrobial activity of the N-halogenated amino acid compound in the presence of a phosphine oxide and/or amine oxide compound is likely not due to a chemical reaction that generates a new and more reactive chemical species.

CC(C)(CS(=O)(=O)O)N(Cl)Cl [N,N-dichloro-2,2-dimethyltaurine]
viable cells per mL (S. aureus; 0.001% formulated with acetate buffer at pH 4): 24 cells per mL | viable cells per mL (S. aureus; 0.001% formulation, adipic acid buffer): 910 cells per mL | viable cells per mL (S. aureus; 0.001% formulation, no buffer): 27429 cells per mL | chemical stability ([1]; 0.1 w/v % solution with and without 0.01 w/v % TBPO (FIG. 1)): not affected | chemical stability ([1]; 0.11 w/v % solution with and without 0.037 w/v % TMAO (FIG. 2)): not affected
